According to patent US10844092B2, “Peptide for promoting regeneration of dentin or dental pulp tissue” (HysensBio Co., Ltd., priority 2016, dated 2020):

test system: BSP; test: Immunostaining of transplanted tissues for BSP; format: in vivo, immunocompromised mice; conditions: 6 weeks after transplantation, FIG. 4
Text: (§1) Briefly, the removed tissues were fixed in 4% paraformaldehyde, decalcified in 10% EDTA (pH 7.4), embedded in paraffin, and then immunostained with anti-DSP and anti-BSP antibodies at a dilution of 1:150 as primary antibodies, and reacted with biotin-labeled goat anti-rabbit IgG (Vector Labs) as secondary antibodies to determine DSP and BSP levels (FIG. 4). In this regard, the tissue transplanted with an implant including none of the peptides of the present invention was used as a control group.
(§2) In this regard, a tissue transplanted with an implant including none of the peptides of the present invention was used as a control group.

**Q.** Which BSP expression level does the source give for “KYKQKKRNYK (Synthetic construct of novel peptide) [SEQ ID NO: 87]” here?
**A.** low BSP expression level

**Q.** Which BSP expression level does the source give for “KYKQKRRSYK (Synthetic construct of novel peptide) [SEQ ID NO: 96]” here?
**A.** low BSP expression level

same assay, conditions: 12 weeks after transplantation, FIG. 7

**Q.** Which BSP expression level does the source give for “KYKQKKRNYK (Synthetic construct of novel peptide) [SEQ ID NO: 87]” here?
**A.** low BSP expression level

**Q.** With “KYKQKRRSYK (Synthetic construct of novel peptide) [SEQ ID NO: 96]” as the substance, how does the BSP expression level read?
**A.** low BSP expression level

test system: DSP; test: Immunostaining of transplanted tissues for DSP; format: in vivo, immunocompromised mice; conditions: 6 weeks after transplantation, FIG. 4
Text: as §1, §2

**Q.** How did the DSP expression level turn out when “KYKQKKRNYK (Synthetic construct of novel peptide) [SEQ ID NO: 87]” was run?
**A.** relatively high DSP expression level

**Q.** For “KYKQKRRSYK (Synthetic construct of novel peptide) [SEQ ID NO: 96]”, which DSP expression level is on record?
**A.** relatively high DSP expression level

same assay, conditions: 12 weeks after transplantation, FIG. 7

**Q.** With “KYKQKKRNYK (Synthetic construct of novel peptide) [SEQ ID NO: 87]” as the substance, how does the DSP expression level read?
**A.** relatively very high DSP expression levels

**Q.** With “KYKQKRRSYK (Synthetic construct of novel peptide) [SEQ ID NO: 96]” as the substance, how does the DSP expression level read?
**A.** relatively very high DSP expression levels

test system: Dspp gene; test: mRNA level of Dspp gene in MDPC-23 cells by real-time PCR; format: cell-based, mouse; conditions: 48 hours, ratio relative to Dspp mRNA level of control group, triplicate
Protocol: The MDPC-23 cells cultured in Example 2-1 were treated with the peptides of the respective groups which were synthesized in Example 1, and cultured for 48 hours. Then, mRNA levels of an odontoblast differentiation marker Dspp gene expressed in the MDPC-23 cells were measured, and a ratio of the measured Dspp mRNA level relative to a Dspp mRNA level measured in a control group was calculated, respectively (Tables 13 to 24). Further, mean values of the Dspp mRNA levels measured in the peptides of respective groups were compared between the groups (FIG. 1B). In this regard MDPC-23 cells which were treated with none of the peptides of the present invention were used as a control group.
The expression levels of the Dspp gene were measured by RT-PCR and real time PCR analysis: In detail, total RNA was extracted from the MDPC-23 cells with TRIzol reagent. 2 μg of the total RNA, 1 μl of reverse transcriptase, and 0.5 μg oligo (dT) were used to synthesize cDNA. The synthesized cDNA were used in real-time polymerase chain reaction. The real-time polymerase chain reaction was performed on an ABI PRISM 7500 sequence detection system (Applied Biosystems) using the following primers and a SYBR GREEN PCR Master Mix (Takara, Japan). The real-time polymerase chain reaction was performed under conditions of 94° C., 1 min; 95° C., 15 sec 60° C., 34 sec for 40 cycles. Results were analyzed by a comparative cycle threshold (CT) method. In this regard, Gapdh gene was used as an internal control. The experiments were performed in triplicate, and then mean values and standard deviations thereof were taken as measured values.

**Q.** Which “mRNA level of Dspp gene, Mean” value does the source give for “66 (KYKQRKRNKY; Synthetic construct of novel peptide) [compound 66]” here?
**A.** 1.627

**Q.** “70 (KYKQKRKNKY; Synthetic construct of novel peptide) [compound 70]” was tested. Which “mRNA level of Dspp gene, Mean” value did it give?
**A.** 1.927

**Q.** Which “mRNA level of Dspp gene, Mean” value does the source give for “26 (KYQRRKRSYK; Synthetic construct of novel peptide) [compound 26]” here?
**A.** 2.193

**Q.** Which “mRNA level of Dspp gene, Mean” value does the source give for “52 (KYRQRRRNYK; Synthetic construct of novel peptide) [compound 52]” here?
**A.** 2.019

**Q.** “82 (KYKQRKRNYK; Synthetic construct of novel peptide) [compound 82]” was tested. Which “mRNA level of Dspp gene, Mean” value did it give?
**A.** 3.361

**Q.** Which “mRNA level of Dspp gene, Mean” value does the source give for “84 (KYKQRRRNYK; Synthetic construct of novel peptide) [compound 84]” here?
**A.** 3.702

**Q.** “17 (KYQRRKKNYK; Synthetic construct of novel peptide) [compound 17]” was tested. Which “mRNA level of Dspp gene, Mean” value did it give?
**A.** 2.117

**Q.** How did the “mRNA level of Dspp gene, Mean” value turn out when “92 (KYKQRRRSYK; Synthetic construct of novel peptide) [compound 92]” was run?
**A.** 4.211

**Q.** How did the “mRNA level of Dspp gene, Mean” value turn out when “42 (KYRQRKRSKY; Synthetic construct of novel peptide) [compound 42]” was run?
**A.** 1.586

**Q.** How did the “mRNA level of Dspp gene, Mean” value turn out when “27 (KYQRRRKSYK; Synthetic construct of novel peptide) [compound 27]” was run?
**A.** 1.993

**Q.** How did the “mRNA level of Dspp gene, Mean” value turn out when “58 (KYRQRKRSYK; Synthetic construct of novel peptide) [compound 58]” was run?
**A.** 1.998

**Q.** “25 (KYQRRKKSYK; Synthetic construct of novel peptide) [compound 25]” was tested. Which “mRNA level of Dspp gene, Mean” value did it give?
**A.** 2.371

**Q.** Which “mRNA level of Dspp gene, Mean” value does the source give for “38 (KYRQKRKNKY; Synthetic construct of novel peptide) [compound 38]” here?
**A.** 2.116

**Q.** For “24 (KYQRKRRNYK; Synthetic construct of novel peptide) [compound 24]”, which “mRNA level of Dspp gene, Mean” value is on record?
**A.** 2.212

**Q.** Which “mRNA level of Dspp gene, Mean” value does the source give for “67 (KYKQRRKNKY; Synthetic construct of novel peptide) [compound 67]” here?
**A.** 1.777

**Q.** Which “mRNA level of Dspp gene, Mean” value does the source give for “60 (KYRQRRRSYK; Synthetic construct of novel peptide) [compound 60]” here?
**A.** 2.107

**Q.** How did the “mRNA level of Dspp gene, Mean” value turn out when “40 (KYRQKRRNKY; Synthetic construct of novel peptide) [compound 40]” was run?
**A.** 2.219

**Q.** “56 (KYRQKRRNYK; Synthetic construct of novel peptide) [compound 56]” was tested. Which “mRNA level of Dspp gene, Mean” value did it give?
**A.** 1.701

**Q.** How did the “mRNA level of Dspp gene, Mean” value turn out when “28 (KYQRRRRSYK; Synthetic construct of novel peptide) [compound 28]” was run?
**A.** 2.453

**Q.** “63 (KYRQKKRSYK; Synthetic construct of novel peptide) [compound 63]” was tested. Which “mRNA level of Dspp gene, Mean” value did it give?
**A.** 1.769

**Q.** For “11 (KYQRRRKSKY; Synthetic construct of novel peptide) [compound 11]”, which “mRNA level of Dspp gene, Mean” value is on record?
**A.** 1.639

**Q.** How did the “mRNA level of Dspp gene, Mean” value turn out when “35 (KYRQRRKNKY; Synthetic construct of novel peptide) [compound 35]” was run?
**A.** 1.983

**Q.** “19 (KYQRRRKNYK; Synthetic construct of novel peptide) [compound 19]” was tested. Which “mRNA level of Dspp gene, Mean” value did it give?
**A.** 1.931

**Q.** With “73 (KYKQRKKSKY; Synthetic construct of novel peptide) [compound 73]” as the substance, how does the “mRNA level of Dspp gene, Mean” value read?
**A.** 2.035

**Q.** With “10 (KYQRRKRSKY; Synthetic construct of novel peptide) [compound 10]” as the substance, how does the “mRNA level of Dspp gene, Mean” value read?
**A.** 1.746

**Q.** For “22 (KYQRKRKNYK; Synthetic construct of novel peptide) [compound 22]”, which “mRNA level of Dspp gene, Mean” value is on record?
**A.** 2.412

**Q.** “21 (KYQRKKKNYK; Synthetic construct of novel peptide) [compound 21]” was tested. Which “mRNA level of Dspp gene, Mean” value did it give?
**A.** 1.893

**Q.** For “80 (KYKQKRRSKY; Synthetic construct of novel peptide) [compound 80]”, which “mRNA level of Dspp gene, Mean” value is on record?
**A.** 1.837

**Q.** Which “mRNA level of Dspp gene, Mean” value does the source give for “59 (KYRQRRKSYK; Synthetic construct of novel peptide) [compound 59]” here?
**A.** 1.792

**Q.** “8 (KYQRKRRNKY; Synthetic construct of novel peptide) [compound 8]” was tested. Which “mRNA level of Dspp gene, Mean” value did it give?
**A.** 1.639

test system: physiologic dentin (tertiary dentin); test: Indirect pulp capping canine model, physiologic (tertiary) dentin formation; format: in vivo, dogs; conditions: deep cavity model, 1.5 μg, together with GI cement, 3 weeks, FIG. 11
Text: In detail, to establish dentin-damaged canine models by indirect pulp capping, a part of enamel in the cervical part was removed from the premolars of 12-month-old adult dogs by using a dental bur. The dentin was shallowly removed according to the exposure degree of the dentin to form a shallow cavity, thereby establishing a shallow cavity model. The dentin was deeply removed such that the dental pulp was seen through, but not exposed to the outside, thereby establishing a deep cavity model. The models were treated with the control group, the peptide of Group 11, or the peptide of Group 12. 3 weeks later, the adult dogs were euthanized, and teeth were extracted therefrom.
(§3) The extracted teeth were fixed in 4% paraformaldehyde for 2.4 hours, washed with PBS (pH 7.4) several times, and then decalcified with 10% formic acid. The decalcified teeth were embedded in paraffin to prepare tissue sections. The tissue sections were stained with hematoxylin/eosin (H&E), and dentin regeneration capabilities were evaluated by histological analysis.

**Q.** How did the “dentin regeneration (histological analysis, H&E)” value turn out when “KYKQKKRNYK (Synthetic construct of novel peptide) [SEQ ID NO: 87]” was run?
**A.** regeneration of physiologic tertiary dentin (TD) which was continuous with the odontoblast processes of the original dentin structure was observed

**Q.** “KYKQKRRSYK (Synthetic construct of novel peptide) [SEQ ID NO: 96]” was tested. Which “dentin regeneration (histological analysis, H&E)” value did it give?
**A.** regeneration of physiologic tertiary dentin (TD) which was continuous with the odontoblast processes of the original dentin structure was observed

same assay, conditions: shallow cavity model, 1.5 μg, 3 weeks, FIG. 10

**Q.** With “KYKQKKRNYK (Synthetic construct of novel peptide) [SEQ ID NO: 87]” as the substance, how does the “dentin regeneration (histological analysis, H&E)” value read?
**A.** regeneration of physiologic tertiary dentin (TD) which was continuous with the odontoblast processes of the original dentin structure was observed

**Q.** How did the “dentin regeneration (histological analysis, H&E)” value turn out when “KYKQKRRSYK (Synthetic construct of novel peptide) [SEQ ID NO: 96]” was run?
**A.** regeneration of physiologic tertiary dentin (TD) which was continuous with the odontoblast processes of the original dentin structure was observed

test system: root canal spaces of human teeth; test: Implant transplanted into root canal spaces of human teeth (H-E, SEM); format: in vivo; conditions: 6 weeks, 10 μg/ml, FIG. 9
Protocol: Reportedly, the dentinal wall and the empty pulp cavity of a natural tooth provide the specific local environment for the regeneration of dentin/pulp-like tissues by dental pulp cells (Huang G T, et al. (2010) Tissue engineering. Part A 16(2):605-615). Therefore, formation of dentin/pulp-like tissues in root canal spaces was evaluated.
In detail, among the implants prepared in Example 3-1, a comparative implant or an implant including the peptide of Group 12 (SEQ ID NO: 96) at a concentration of 10 μg/ml was transplanted into the root canal spaces of human teeth for 6 weeks, and dentin dental pulp-like tissues formed in the respective implants were subjected to hematoxylin-eosin (H-E) staining according to the method of Example 3-1, and photographed by a scanning electron microscope according to the method of Example 3-7 (FIG. 9).

**Q.** For “KYKQKRRSYK (Synthetic construct of novel peptide) [SEQ ID NO: 96]”, which “pulp-like tissue formation inside root canals (H-E)” value is on record?
**A.** vascularized pulp-like tissues were formed

same assay, conditions: 6 weeks, FIG. 9 C, D and D′

**Q.** Which “newly formed dentin in root canal (H-E)” value does the source give for “KYKQKRRSYK (Synthetic construct of novel peptide) [SEQ ID NO: 96]” here?
**A.** newly formed dentin was observed in the existing dentinal wall

**Q.** And the “odontoblast-like cells on existing dentinal wall (H-E)” value?
**A.** odontoblast-like cells exhibited a palisade arrangement on the existing dentinal wall

same assay, conditions: 6 weeks, FIG. 9 G and H

**Q.** “KYKQKRRSYK (Synthetic construct of novel peptide) [SEQ ID NO: 96]” was tested. Which “odontoblast-like cells on existing dentinal wall (scanning microscopic images)” value did it give?
**A.** odontoblast-like cells exhibited a palisade arrangement on the existing dentinal wall

test system: physiologic dentin (tertiary dentin); test: Direct pulp capping canine model, physiologic (tertiary) dentin formation; format: in vivo, dogs; conditions: exposed pulp, peptide 1.5 μg, sealed with MTA, covered with GI cement, 3 weeks, FIG. 12
Protocol: In detail, to establish dentin-damaged canine models by direct pulp capping, the enamel and dentin in the cervical part were removed from the premolars of 12-month-old adult dogs by using a dental bur so that the dental pulp was exposed to the outside. The models were treated with the control group, the peptide of Group 11, or the peptide of Group 12. 3 weeks later, the adult dogs were euthanized and teeth were extracted therefrom.
as §3, with “24” for “2.4”

**Q.** Which “dentin regeneration (histological analysis, H&E)” value does the source give for “KYKQKKRNYK (Synthetic construct of novel peptide) [SEQ ID NO: 87]” here?
**A.** new physiologic dentin (TD) which was continuous with the odontoblast processes of the original dentin was formed

**Q.** With “KYKQKRRSYK (Synthetic construct of novel peptide) [SEQ ID NO: 96]” as the substance, how does the “dentin regeneration (histological analysis, H&E)” value read?
**A.** new physiologic dentin (TD) which was continuous with the odontoblast processes of the original dentin was formed
